# Values quoted from earlier work as cited in patent US20220161013A1, “IMPROVED DELIVERY OF DRUG THERAPY TO THE CNS BY ULTRASOUND-BASED OPENING OF THE BLOOD-BRAIN BARRIER” (NORTHWESTERN UNIVERSITY, priority 2019, published 2022).
# Experiments:
# [1] = tested on: orthotropic glioma xenograft model; settings: with valspodar, nude mice
# p-Glycoprotein = p-Glycoprotein (Homo sapiens, UniProt P08183)
# [2] = local convection-enhanced delivery
# Sequence of p-Glycoprotein (P08183 whole entry): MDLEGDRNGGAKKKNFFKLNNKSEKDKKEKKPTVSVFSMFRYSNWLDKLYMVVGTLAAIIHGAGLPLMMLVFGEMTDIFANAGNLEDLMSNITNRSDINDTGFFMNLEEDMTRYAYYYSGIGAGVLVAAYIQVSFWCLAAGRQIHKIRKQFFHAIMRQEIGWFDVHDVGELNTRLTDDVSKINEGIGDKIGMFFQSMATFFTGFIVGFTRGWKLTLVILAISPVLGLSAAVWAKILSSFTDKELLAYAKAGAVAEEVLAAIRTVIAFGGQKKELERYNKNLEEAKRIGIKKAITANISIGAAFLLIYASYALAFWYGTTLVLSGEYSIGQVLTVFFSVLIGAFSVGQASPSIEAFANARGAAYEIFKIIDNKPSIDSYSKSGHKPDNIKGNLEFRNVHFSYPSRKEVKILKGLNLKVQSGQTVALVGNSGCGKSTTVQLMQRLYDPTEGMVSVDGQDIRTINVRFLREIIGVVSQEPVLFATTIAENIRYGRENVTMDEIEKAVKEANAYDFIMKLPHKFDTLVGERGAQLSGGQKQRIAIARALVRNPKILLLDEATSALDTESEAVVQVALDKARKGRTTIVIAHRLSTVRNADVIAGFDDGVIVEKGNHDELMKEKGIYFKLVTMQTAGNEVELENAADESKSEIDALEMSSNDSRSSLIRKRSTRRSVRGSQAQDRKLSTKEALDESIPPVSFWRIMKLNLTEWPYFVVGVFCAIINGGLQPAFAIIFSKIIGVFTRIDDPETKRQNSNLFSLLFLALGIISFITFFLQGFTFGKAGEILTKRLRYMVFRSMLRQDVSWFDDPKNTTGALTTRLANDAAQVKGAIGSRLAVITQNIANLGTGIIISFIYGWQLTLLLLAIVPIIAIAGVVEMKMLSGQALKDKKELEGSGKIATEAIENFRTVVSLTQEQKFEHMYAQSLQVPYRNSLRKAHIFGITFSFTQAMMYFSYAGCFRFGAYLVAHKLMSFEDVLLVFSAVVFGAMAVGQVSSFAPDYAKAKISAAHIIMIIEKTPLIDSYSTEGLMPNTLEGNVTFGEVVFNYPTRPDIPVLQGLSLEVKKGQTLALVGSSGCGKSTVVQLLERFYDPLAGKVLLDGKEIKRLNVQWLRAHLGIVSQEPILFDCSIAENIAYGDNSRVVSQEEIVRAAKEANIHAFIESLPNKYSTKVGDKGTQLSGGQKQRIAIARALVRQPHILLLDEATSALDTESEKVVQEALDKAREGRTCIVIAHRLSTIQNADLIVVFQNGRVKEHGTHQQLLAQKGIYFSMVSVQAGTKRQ
smiles,measurement,setting,value
"CC(=O)O[C@H]1C(=O)[C@@]2(C)[C@H]([C@H](OC(=O)c3ccccc3)[C@]3(O)C[C@H](OC(=O)[C@H](O)[C@@H](NC(=O)c4ccccc4)c4ccccc4)C(C)=C1C3(C)C)[C@]1(OC(C)=O)CO[C@@H]1C[C@@H]2O [PTX, paclitaxel]",effectiveness when using p-Glycoprotein blocker valspodar,[1],significant increased effectiveness
same,substrate for the multidrug resistance protein p-Glycoprotein,p-Glycoprotein,substrate
same,response rate,[2],73%
